Measurements published in ChEMBL document CHEMBL1201862, “PubChem BioAssay data set” (2004).
Calls of active or inactive are those of the source.

What was measured:
[1] = system: HEK293; assay: cells; conditions: Homo sapiens
[2] = system: HEK293; assay: cells; conditions: Homo sapiens; remark: listed apart in the source
[3] = target: Voltage-gated inwardly rectifying potassium channel KCNH2 (Homo sapiens, UniProt Q12809); conditions: Potency;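 note: confirmatory quantitative high-throughput screen measuring inhibition of hERG channel activity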
Chain of Voltage-gated inwardly rectifying potassium channel KCNH2 (Q12809 whole entry): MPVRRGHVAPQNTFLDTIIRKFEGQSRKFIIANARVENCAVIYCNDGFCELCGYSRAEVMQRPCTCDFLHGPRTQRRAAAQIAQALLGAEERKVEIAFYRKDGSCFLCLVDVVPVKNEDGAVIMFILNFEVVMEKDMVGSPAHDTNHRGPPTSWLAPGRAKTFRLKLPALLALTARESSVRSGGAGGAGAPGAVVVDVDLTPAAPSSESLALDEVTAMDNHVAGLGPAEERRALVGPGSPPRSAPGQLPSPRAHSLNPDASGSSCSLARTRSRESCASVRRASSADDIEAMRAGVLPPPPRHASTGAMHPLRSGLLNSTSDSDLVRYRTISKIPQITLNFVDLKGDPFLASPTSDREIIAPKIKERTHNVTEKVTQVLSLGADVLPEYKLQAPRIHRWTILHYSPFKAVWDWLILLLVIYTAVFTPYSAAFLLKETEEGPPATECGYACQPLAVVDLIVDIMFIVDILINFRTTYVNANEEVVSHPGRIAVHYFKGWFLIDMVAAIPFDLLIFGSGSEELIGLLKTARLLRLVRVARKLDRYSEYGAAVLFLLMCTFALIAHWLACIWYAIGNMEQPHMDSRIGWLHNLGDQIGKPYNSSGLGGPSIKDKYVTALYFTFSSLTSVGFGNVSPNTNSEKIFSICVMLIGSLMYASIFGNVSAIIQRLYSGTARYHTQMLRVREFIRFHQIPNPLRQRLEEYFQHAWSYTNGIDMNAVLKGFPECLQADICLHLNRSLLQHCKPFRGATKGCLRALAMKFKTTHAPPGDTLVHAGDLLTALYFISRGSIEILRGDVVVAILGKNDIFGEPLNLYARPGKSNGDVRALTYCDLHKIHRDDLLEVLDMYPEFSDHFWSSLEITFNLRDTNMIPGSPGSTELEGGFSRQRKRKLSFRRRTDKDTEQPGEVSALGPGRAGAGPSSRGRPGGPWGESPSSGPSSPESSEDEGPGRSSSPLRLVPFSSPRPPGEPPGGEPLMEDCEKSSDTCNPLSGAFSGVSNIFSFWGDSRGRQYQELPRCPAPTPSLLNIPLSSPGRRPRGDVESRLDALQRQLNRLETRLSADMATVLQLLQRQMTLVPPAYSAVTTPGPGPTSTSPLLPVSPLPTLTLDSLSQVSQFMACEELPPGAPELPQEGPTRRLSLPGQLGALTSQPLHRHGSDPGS

[4] = target: T1, Cytochrome P450 2C9 (Homo sapiens, UniProt P11712)
T1 sequence (P11712 whole entry): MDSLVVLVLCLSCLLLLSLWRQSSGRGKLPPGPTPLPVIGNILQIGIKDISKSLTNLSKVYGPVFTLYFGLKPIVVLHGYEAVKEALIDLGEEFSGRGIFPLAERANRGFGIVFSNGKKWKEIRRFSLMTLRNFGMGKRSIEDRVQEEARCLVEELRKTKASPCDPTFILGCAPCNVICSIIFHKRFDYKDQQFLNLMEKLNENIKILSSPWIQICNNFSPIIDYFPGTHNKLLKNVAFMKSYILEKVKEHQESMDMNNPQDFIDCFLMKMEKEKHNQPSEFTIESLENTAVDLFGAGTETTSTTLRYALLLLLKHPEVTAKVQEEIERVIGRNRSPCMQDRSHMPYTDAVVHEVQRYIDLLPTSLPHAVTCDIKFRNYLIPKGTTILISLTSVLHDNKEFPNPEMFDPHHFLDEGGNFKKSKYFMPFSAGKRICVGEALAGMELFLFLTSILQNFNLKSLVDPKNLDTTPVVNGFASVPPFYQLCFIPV

[5] = target: T2, Cytochrome P450 1A2 (Homo sapiens, UniProt P05177);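 note: PubChem cytochrome P450 panel assay, CYP1A2 panel member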
T2 sequence (P05177 whole entry): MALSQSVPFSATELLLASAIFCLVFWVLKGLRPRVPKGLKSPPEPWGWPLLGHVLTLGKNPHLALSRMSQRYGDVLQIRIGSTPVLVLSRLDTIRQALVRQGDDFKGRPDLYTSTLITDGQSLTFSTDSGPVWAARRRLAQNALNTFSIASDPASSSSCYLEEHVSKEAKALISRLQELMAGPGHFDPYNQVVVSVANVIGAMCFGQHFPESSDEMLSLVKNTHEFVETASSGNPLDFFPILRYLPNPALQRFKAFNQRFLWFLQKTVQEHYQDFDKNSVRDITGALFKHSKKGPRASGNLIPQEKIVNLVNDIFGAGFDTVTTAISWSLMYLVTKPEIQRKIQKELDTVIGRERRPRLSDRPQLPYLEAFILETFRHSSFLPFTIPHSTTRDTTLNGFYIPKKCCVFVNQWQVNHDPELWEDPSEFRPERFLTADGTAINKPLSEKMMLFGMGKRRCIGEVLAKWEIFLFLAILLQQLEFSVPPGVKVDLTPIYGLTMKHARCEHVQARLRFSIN

[6] = target: Induced myeloid leukemia cell differentiation protein Mcl-1 (Homo sapiens, UniProt Q07820); assay type: functional
Chain of Induced myeloid leukemia cell differentiation protein Mcl-1 (Q07820 whole entry): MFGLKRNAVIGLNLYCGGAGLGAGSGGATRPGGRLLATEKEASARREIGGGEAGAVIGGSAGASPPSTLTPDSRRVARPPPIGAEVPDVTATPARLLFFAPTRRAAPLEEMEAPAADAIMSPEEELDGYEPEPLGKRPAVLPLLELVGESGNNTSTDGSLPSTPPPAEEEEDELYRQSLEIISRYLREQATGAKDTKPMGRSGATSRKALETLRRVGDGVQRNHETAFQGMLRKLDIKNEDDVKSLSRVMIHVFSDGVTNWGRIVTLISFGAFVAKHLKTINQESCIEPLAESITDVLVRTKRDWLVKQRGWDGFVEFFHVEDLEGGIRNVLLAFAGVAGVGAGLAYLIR

[7] = target: T1, Cytochrome P450 2C9; remark: listed apart in the source
[8] = target: Cytochrome P450 2D6 (Homo sapiens, UniProt P10635);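 note: CYP2D6 member of a cytochrome P450 panel assay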
Chain of Cytochrome P450 2D6 (P10635 whole entry): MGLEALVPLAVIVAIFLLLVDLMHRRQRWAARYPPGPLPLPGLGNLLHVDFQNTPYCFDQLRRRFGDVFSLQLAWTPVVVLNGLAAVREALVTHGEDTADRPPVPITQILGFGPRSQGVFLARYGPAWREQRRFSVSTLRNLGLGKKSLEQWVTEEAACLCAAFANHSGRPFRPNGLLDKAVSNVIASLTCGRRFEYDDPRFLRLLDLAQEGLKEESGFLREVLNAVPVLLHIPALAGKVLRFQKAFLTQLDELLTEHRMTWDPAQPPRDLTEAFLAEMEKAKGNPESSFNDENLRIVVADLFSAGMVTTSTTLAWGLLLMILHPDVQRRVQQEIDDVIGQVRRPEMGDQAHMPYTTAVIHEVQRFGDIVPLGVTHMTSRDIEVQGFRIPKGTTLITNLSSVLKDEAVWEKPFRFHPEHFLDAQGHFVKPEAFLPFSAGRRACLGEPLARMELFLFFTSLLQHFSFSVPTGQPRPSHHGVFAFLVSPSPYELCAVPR

[9] = target: T3, Aryl hydrocarbon receptor (Homo sapiens, UniProt P35869); conditions: Potency;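 note: confirmatory quantitative high-throughput screen measuring activation of the AhR signaling pathway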
T3 sequence (P35869 whole entry): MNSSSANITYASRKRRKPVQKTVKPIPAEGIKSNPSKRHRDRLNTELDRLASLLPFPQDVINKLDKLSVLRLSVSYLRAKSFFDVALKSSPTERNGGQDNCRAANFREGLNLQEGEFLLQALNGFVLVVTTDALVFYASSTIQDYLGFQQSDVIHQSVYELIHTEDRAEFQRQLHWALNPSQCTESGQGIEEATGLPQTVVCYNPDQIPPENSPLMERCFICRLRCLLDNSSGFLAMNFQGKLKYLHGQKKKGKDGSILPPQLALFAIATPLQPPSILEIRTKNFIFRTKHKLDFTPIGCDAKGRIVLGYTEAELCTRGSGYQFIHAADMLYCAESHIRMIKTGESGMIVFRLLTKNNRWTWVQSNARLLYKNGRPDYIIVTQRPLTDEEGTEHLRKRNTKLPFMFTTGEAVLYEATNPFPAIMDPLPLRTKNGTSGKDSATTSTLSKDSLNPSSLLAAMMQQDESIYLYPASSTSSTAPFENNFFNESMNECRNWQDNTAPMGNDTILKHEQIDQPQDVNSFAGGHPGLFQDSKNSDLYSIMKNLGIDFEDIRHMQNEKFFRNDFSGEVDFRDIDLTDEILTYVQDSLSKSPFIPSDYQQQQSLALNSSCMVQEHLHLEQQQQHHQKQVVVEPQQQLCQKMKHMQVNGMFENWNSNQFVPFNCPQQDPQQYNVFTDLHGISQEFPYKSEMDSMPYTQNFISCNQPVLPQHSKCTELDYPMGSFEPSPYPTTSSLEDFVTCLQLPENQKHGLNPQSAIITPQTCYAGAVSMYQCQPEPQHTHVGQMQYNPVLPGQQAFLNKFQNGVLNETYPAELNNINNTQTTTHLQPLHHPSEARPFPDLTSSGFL

[10] = target: Cytochrome P450 2C19 (Homo sapiens, UniProt P33261); assay: Cytochrome panel assay with activity outcomes. Panel member name: p450-cyp2c19 Compounds with AC50 equal or less than 10 uM are considered active; assay type: functional; conditions: read-out: AC50
Chain of Cytochrome P450 2C19 (P33261 whole entry): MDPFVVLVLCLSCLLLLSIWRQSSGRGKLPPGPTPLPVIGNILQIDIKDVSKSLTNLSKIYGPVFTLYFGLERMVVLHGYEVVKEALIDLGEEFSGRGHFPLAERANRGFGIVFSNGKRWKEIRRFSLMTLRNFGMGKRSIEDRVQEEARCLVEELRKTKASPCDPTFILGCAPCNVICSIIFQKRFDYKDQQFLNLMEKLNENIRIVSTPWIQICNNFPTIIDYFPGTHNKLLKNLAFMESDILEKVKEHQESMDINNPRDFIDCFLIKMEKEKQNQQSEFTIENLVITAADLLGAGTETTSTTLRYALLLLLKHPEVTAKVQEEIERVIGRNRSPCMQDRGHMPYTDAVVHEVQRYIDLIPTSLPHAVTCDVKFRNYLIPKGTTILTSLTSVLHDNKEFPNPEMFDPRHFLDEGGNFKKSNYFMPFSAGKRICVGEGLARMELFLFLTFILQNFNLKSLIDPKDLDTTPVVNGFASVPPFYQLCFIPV

[11] = microbe, parasite or virus in culture; assay type: functional; conditions: Mycobacterium tuberculosis

COc1ccc(CC(C)NCC(O)c2ccc(O)c(NC=O)c2)cc1 (centres undefined)
EC50 [1]: > 59.6 µM (inactive)
EC50 [2]: > 59.6 µM (inactive)

CCCCCCCCCCCCCC(=O)O[C@@H]1[C@@H](C)[C@@]2(O)[C@@H](C=C(CO)C[C@@]3(O)C(=O)C(C)=C[C@@H]23)C2C(C)(C)[C@@]21OC(C)=O (some centres undefined)
AC50 [3]: 0.112 µM (inconclusive)

CCCCCCN(CCCCCC)C(=O)Cc1c(-c2ccc(F)cc2)[nH]c2ccccc12
AC50 [3]: 8.91 µM (inconclusive)
AC50 [4]: 5.01 µM (inconclusive)
AC50 [5]: 15.8 µM (inconclusive)

COc1ccc2[nH]c([S+]([O-])Cc3ncc(C)c(OC)c3C)nc2c1 (centres undefined) [OMEPRAZOLE]
IC50 [6]: 3.14 µM (active)
AC50 [7]: inactive
AC50 [8]: inactive
AC50 [9]: 20 µM (inconclusive)
AC50 [10]: 2.51 µM (active)
AC50 [5]: 31.6 µM (inconclusive)

CCCCCC(O)c1cccc(OCc2ccc3ccccc3n2)c1 (centres undefined) [REV-5901]
AC50 [3]: 35.5 µM (inconclusive)
CC50 [11]: > 40 µM (active)
